Patent US20230332103A1, “Methods and Compositions for Generating Human Forebrain Neural Progenitor Cells and for Maturation Thereof to Parvalbumin+ Interneurons” (Trailhead Biosystems Inc., priority 2021, published 2023)
Entries after “also recorded” stand apart in the source; their conditions may differ.

Tests used:
[1] = tested on: stage 4 neural stem cells; assay: factor criticality analysis of stage 5 recipe; assay type: cell-based, human; details: for effect on expression of somatostatin: FIG. 28; for contribution to expression of PVALB (Parvalbumin): FIG. 28-30
Procedure: To assess the impact of elimination of each validated factor, we again used dynamic profile analysis and compared the expression level of genes of interest in the absence of each finalized factor while others are present.
In the stage 5 recipe, each of seven finalized factors were removed while other factors were kept present and expression levels of PVALB and SST were assessed compared to the presence of all seven factors. […] 2-phospho-L-ascorbic acid, BDNF, IGF-1 were included in the stage 5 recipe (FIG. 28). […] Others were also found to increase the expression of somatostatin that was SST interneuron marker. So, they are excluded from the recipe and N2 was included in the stage 5 recipe (FIG. 29). […] Sodium pyruvate was included in the stage 5 recipe (FIG. 30).

[2] = tested on: cells after termination of stage 4 treatment; assay: HD-DoE 8-factor experiment for stage 5 recipe (JQ1, Indolactam-V, Oleic acid, BDNF, IGF-1, 2-phospho-L-Ascorbic acid, Albumax, MK2206), optimized for PVALB; assay type: cell-based, human; details: for factor contribution on expression of PVALB: important input for maximum expression of PVALB, FIG. 21; for impact on expression of PVALB: model maximized for PVALB / dynamic profile, FIG. 21 and 22
From the text: To further guide the differentiation of forebrain-committed neural stem cells to PVALB interneuron cells at stage 5, we performed a HD-DoE experiment for 3 days after termination of stage 4 treatment. At this time, we focused on maximum expression of PVALB that was expressed in Parvalbumin (+) interneurons and minimum expression of Somatostatin that is another type of interneurons. This 8-factor experiment included JQ1, Indolactam-V, Oleic acid, BDNF, IGF-1, 2-phospho-L-Ascorbic acid, Albumax, MK2206. […] Using dynamic profile analysis, we modified the model to achieve the maximum expression level of PVALB simultaneously and therefore 2-phospho-L-ascorbic acid, BDNF, IGF1 were included while MK2206, Albumax, and JQ1 are excluded (FIG. 22). Considering the model at different optimization settings for maximum differentiation of cells toward ventral forebrain, the recipe for stage 5 of differentiation included BDNF, IGF-1, 2-phospho-L-ascorbic acid from this HD-Doe experiment.

[3] = tested on: human pluripotent stem cells; assay: HD-DoE 12-factor experiment for stage 1 recipe, gene expression by quantitative PCR after 3 days; assay type: cell-based; details: for factor contribution on expression of OTX2: model of maximum expression of OTX2
From the text: This example utilizes a method of High-Dimensional Design of Experiments (HD-DoE), as previously described in Bukys et al. (2020) […] 23:101346. The method employs computerized design geometries to simultaneously test multiple process inputs and offers mathematical modeling of a deep effector/response space. The method allows for finding combinatorial signaling inputs that control a complex process, such as during cell differentiation. It allows testing of multiple plausible critical process parameters, as such parameters impact output responses, such as gene expression. Because gene expression provides hallmark features of the phenotype of, for example, a human cell, the method can be applied to identify, and understand, which signaling pathways control cell fate. In the current example, the HD-DOE method was applied with the intent to find conditions for induction of […] neural progenitor-expressed genes, directly from the pluripotent stem cell state. To develop the recipe for each stage, the impact of agonists and antagonists of multiple signaling pathways (herein called effectors) on the expression of two sets of 53 pre-selected genes, after a 3-day treatment, has been tested and modeled. These effectors are small molecules or proteins that are commonly used during stepwise differentiation of stem cells to specific fates. Choice of the effectors were based on current literature on neural induction in forebrain region of developing brain and differentiation of stem cells to neural progenitors. To test the effectors, experiments with at least 8 factors were designed that can assess the response of cells to 48 or more different combinations of effectors in a range of concentrations. To analyze the models, we focused on expression of genes involved in development and patterning of the anterior neuroectoderm and forebrain including OTX2 (Hoch et al. (2015) Cell Reports 12:482-494), SIX3 (Lagutin et al. (2003) Genes & Development 17:368-379) and FEZF2 (Zhang et al. (2014) Development 141:4794-[…]). At later stages we focused on dorsoventral patterning of telencephalon and gene expressed in ventral forebrain including NKX2-1 and absence of PAX6 which is a dorsal forebrain marker (Stoykova et al. (2000) J. Neurosci. 20:8042-8050). The impact of each effector on gene expression level is defined by a parameter called factor contribution that is calculated for each effector during the modeling. To identify the recipe for stage 1 of differentiation, 96 different combinations of effectors generated using Design-of-Experiments compression through D-optimality were robotically prepared. The effector combinations were prepared in a basal media and were subsequently added to the cells, which were then allowed to differentiate. Three days later RNA extraction was performed, and gene expression was obtained using quantitative PCR analysis. […] Solutions within the tested space could then be explored to address desirability. Optimizing for maximal expression of SIX3 at 3300 and FEZF2 1355 expression values led to robust solutions. This model was derived from testing 12 effectors including AGN193109, LDN193189, CHIR99021, XAV939, IGF2, Purmorphamine, 4-oxo-RA, TTNPB, SR11237, FGF8, PD0325901 and […]. […] The model was also optimized for maximum expression of FEZF2 separately at 3576 expression value to find any additional factors that can boost expression of forebrain genes. […] To find the set of factors that have the potential to optimize all 3 genes in this experiment, a new assessment was done through dynamic profile analysis with focus on maximal expression of OTX2, FEZF2 and SIX3.

[4] = tested on: human pluripotent stem cells; assay: factor criticality analysis (dynamic profile analysis) of stage 1 recipe; assay type: cell-based; parameters: unit not given here; details: other five factors present; for expression level of FEZF2 when the effector is removed: 2000 with all six factors; for expression level of SIX3 when the effector is removed: 3000 with all six factors; for expression level of OTX2 when the effector is removed: 5500 with all six factors
Procedure: (§1) To assess the impact of the elimination of each validated factor, dynamic profile analysis was used and compared the expression level of genes of interest in absence of each finalized factor while others are present.
In the stage 1 recipe, each of the six finalized factors were removed individually while the other five factors were present and expression levels of forebrain genes was assessed compared to the presence of all six factors together. The results are summarized in FIG. 11A-B. When LDN193189 was removed, expression levels of FEZF2, OTX2 and SIX3 were decreased drastically from 2000 to 1000, 5500 to 4000 and 3000 to 0, respectively. […] When Purmorphamine was removed, levels of FEZF2 and SIX3 were decreased to 1000 and below 3000, while levels of OTX2 increased to 6500.

[5] = tested on: forebrain-committed neural stem cells (stage 1 neural stem cells); assay: factor criticality analysis (dynamic profile analysis) of stage 2 recipe; assay type: cell-based, human; details: stage 2 recipe, other three factors present; for expression level of PAX6 in the absence of the effector: 0 with all four factors; for expression level of NKX2-2 in the absence of the effector: 100 with all four factors; for expression level of NKX2-1 in the absence of the effector: 5000 with all four factors
Procedure: as §1
In the stage 2 recipe, each of the four finalized factors were removed while the other three factors remained present and expression levels of NKX2-1, PAX6 and NKX2-2 were assessed compared to presence of all four factors. The results are summarized in FIG. 13A-B. Absence of PD0325901 reduced the levels of NKX2-1 and NKX2-2 while increasing PAX6 from 5000 to 3200, 100 to 0 and 0 to 5000, respectively. […] Removing XAV939 reduced the levels of NKX2-1 from 5000 to 3000, while increasing both PAX6 and NKX2-2 to 10000 and 200, respectively. Another observation was the interaction between XAV939 and Purmorphamine. In the absence of XAV939, the impact of Purmorphamine on NKX2-1 became negative and, as it is shown in interaction plot of FIG. 14, the level of NKX2-1 is higher when both factors are present.

[6] = tested on: human pluripotent stem cells; assay: additional HD-DoE experiment for stage 1 (forebrain differentiation from pluripotency), optimized for FEZF2; assay type: cell-based; details: for impact on expression of FEZF2: dynamic profile, FIG. 6; for factor contribution on expression of FEZF2: positive impact, additional stage 1 experiment optimized for FEZF2, FIG. 5
Procedure: To identify the recipe for stage 1 of differentiation, 96 different combinations of effectors generated using Design-of-Experiments compression through D-optimality were robotically prepared. The effector combinations were prepared in a basal media and were subsequently added to the cells, which were then allowed to differentiate. Three days later RNA extraction was performed, and gene expression was obtained using quantitative PCR analysis. The data were normalized and modeled using partial least squares regression analysis to the effector design, resulting in the generation of gene-specific models, which after model tuning for maximal Q2 predictive power, provided explanation of the effectors ability to control the expression of individual genes, combinatorially, and individually. Solutions within the tested space could then be explored to address desirability.
To further enhance the conditions for forebrain differentiation from pluripotency, an additional HD-DoE experiment was performed. Additional gene regulatory models were obtained that were used for preparation of the differentiation protocol. The factors in this experiment included LDN193189, PD173074, BLU9931, Purmorphamine, SC79, MK2206, ZM336372, PD0325901, CHIR99021, XAV939, UCLA-GP130, Tofacitinib and GO6983. […] Dynamic profile analysis was also used to assess the interaction between the effectors.

[7] = tested on: forebrain-committed neural stem cells (stage 1 neural stem cells); assay: HD-DoE 12-factor experiment for stage 2 recipe, optimized for NKX2-1; assay type: cell-based, human; details: model maximized for NKX2-1 / dynamic profile, FIG. 7 and 8
Procedure: To further guide the differentiation of forebrain-committed neural stem cells to ventral forebrain neural stem cells at stage 2, a HD-DoE experiment was performed for 3 days after termination of stage 1 treatment. At this time, we focused on maximum expression of NKX2-1 that is expressed in ventral forebrain region and minimum expression of PAX6 that is expressed in dorsal forebrain region. This 12-factor experiment included LDN193189, BMP7, PD0325901, MK2206, A8301, XAV939, CHIR99021, Purmorphamine, SANT-1, AGN193109, TTNPB and GSI-XX.

O=C1O[C@H]([C@@H](O)CO)C(O)=C1OP(=O)(O)O [2-phospho-L-ascorbic acid]
effect on expression of somatostatin [1]: did not change
contribution to expression of PVALB (Parvalbumin) [1]: positive contribution
factor contribution on expression of PVALB [2]: 15.04
impact on expression of PVALB [2]: increase its expression level
impact on expression of PVALB ([2]; listed as 2-phospho-L-Ascorbic acid): positive impact

CC(C)[C@H]1C(=O)N[C@H](CO)Cc2c[nH]c3cccc(c23)N1C [Indolactam-V]
impact on expression of PVALB [2]: increase its expression level; also recorded: positive impact

CCCCCCCC/C=C\CCCCCCCC(=O)OC[C@@H](O)COP(=O)(O)O [O-LPA, 1-Oleoyl lysophosphatidic acid]
contribution to expression of GAD1 ([1]; FIG. 31): contribute to the expression
contribution to expression of LHX6 ([1]; FIG. 31): contribute to the expression

CCCCCCCC/C=C\CCCCCCCC(=O)O [Oleic acid]
impact on expression of PVALB [2]: increase its expression level; also recorded: positive impact

O=C(NOC[C@H](O)CO)c1ccc(F)c(F)c1Nc1ccc(I)cc1F [PD0325901]
factor contribution on expression of OTX2 ([3]; positive impact): low
factor contribution on expression of FEZF2 ([3]; positive impact, model optimized for maximum expression of FEZF2): 10
expression level of FEZF2 when the effector is removed [4]: drop
expression level of SIX3 when the effector is removed [4]: did not have a significant impact
expression level of OTX2 when the effector is removed [4]: did not have a significant impact
expression level of PAX6 in the absence of the effector [5]: 5000
expression level of NKX2-2 in the absence of the effector [5]: 0
expression level of NKX2-1 in the absence of the effector [5]: 3200
impact on expression of FEZF2 [6]: positive impact
factor contribution on expression of FEZF2 [6]: 15
impact on expression of NKX2-1 [7]: increase its expression level; also recorded: Positive impact

Oc1nc(-c2ccc(C(F)(F)F)cc2)nc2c1CSCC2 [XAV939]
impact on expression of OTX2 ([3]; dynamic profile analysis, FIG. 4): positive impact
factor contribution on expression of OTX2 ([3]; positive impact): low
factor contribution on expression of SIX3 ([3]; positive impact, model optimized for maximal expression of SIX3, 3-day treatment): 5
expression level of FEZF2 when the effector is removed [4]: 1700
expression level of SIX3 when the effector is removed [4]: 1000
expression level of OTX2 when the effector is removed [4]: 5000
expression level of PAX6 in the absence of the effector [5]: 10000
expression level of NKX2-2 in the absence of the effector [5]: 200
expression level of NKX2-1 in the absence of the effector [5]: 3000
impact on expression of FEZF2 [6]: positive impact
factor contribution on expression of FEZF2 [6]: 12
impact on expression of NKX2-1 [7]: increase its expression level; also recorded: Positive impact

B1: BDNF: brain-derived neurotrophic factor, ligand of BDNFR signaling pathway (protein, UniProt P23560 19-247, looked up)
Neurotrophic factor BDNF …: APMKEANIRGQGGLAYPGVRTHGTLESVNGPKAGSRGLTSLADTFEHVIEELLDEDQKVRPNEENNKDADLYTSRVMLSSQVPLEPPLLFLLEEYKNYLDAANMSMRVRRHSDPARRGELSVCDSISEWVTAADKKTAVDMSGGTVTVLEKVPVSKGQLKQYFYETKCNPMGYTKEGCRGIDKRHWNSQCRTTQSYVRALTMDSKKRIGWRFIRIDTSCVCTLTIKRGR
effect on expression of somatostatin [1]: did not change
contribution to expression of PVALB (Parvalbumin) [1]: positive contribution
factor contribution on expression of PVALB [2]: 14.6
impact on expression of PVALB [2]: increase its expression level; also recorded: positive impact
